According to ChEMBL document CHEMBL1201862, “PubChem BioAssay data set” (2004):
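Method: 48-hour compound exposure of cells in 96-well plates, five concentrations, linear interpolation of endpoints. Here, GI50 denotes the concentration required for 50% inhibition of growth.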 The source made the active and inactive calls. Rule as the data show it: active = GI50 up to about 1.1 µM and inactive = higher.

What was measured:
Assay in all cases: DTP human tumour cell line panel, 48 h
OVCAR-4 = tested on: OVCAR-4
SR = tested on: SR
TK-10 = tested on: TK-10
K562 = tested on: K562
IGROV-1 = tested on: IGROV-1
U-251 = tested on: U-251
HL-60 = tested on: HL-60
COLO 205 = tested on: COLO 205
CCRF-CEM = tested on: CCRF-CEM
RPMI-8226 = tested on: RPMI-8226
MDA-MB-435 = tested on: MDA-MB-435
NCI/ADR-RES = tested on: NCI/ADR-RES
OVCAR-5 = tested on: OVCAR-5
SK-OV-3 = tested on: SK-OV-3
HCT-116 = tested on: HCT-116
T47D = tested on: T47D
HOP-62 = tested on: HOP-62
SW-620 = tested on: SW-620
OVCAR-8 = tested on: OVCAR-8
ACHN = tested on: ACHN
OVCAR-3 = tested on: OVCAR-3
PC-3 = tested on: PC-3
NCI-H522 = tested on: NCI-H522
KM12 = tested on: KM12
LOX IMVI = tested on: LOX IMVI
BT-549 = tested on: BT-549
Hs-578T = tested on: Hs-578T
SK-MEL-5 = tested on: SK-MEL-5
UO-31 = tested on: UO-31
HOP-92 = tested on: HOP-92
NCI-H23 = tested on: NCI-H23
UACC-257 = tested on: UACC-257
NCI-H460 = tested on: NCI-H460
SK-MEL-2 = tested on: SK-MEL-2
SNB-19 = tested on: SNB-19
NCI-H226 = tested on: NCI-H226
A549 = tested on: A549
HCT-15 = tested on: HCT-15
MCF7 = tested on: MCF7
SF-268 = tested on: SF-268
HT-29 = tested on: HT-29
DU-145 = tested on: DU-145
A498 = tested on: A498
SF-295 = tested on: SF-295
Malme-3M = tested on: Malme-3M
EKVX = tested on: EKVX
M14 = tested on: M14
RXF 393 = tested on: RXF 393
MOLT-4 = tested on: MOLT-4
SK-MEL-28 = tested on: SK-MEL-28
786-0 = tested on: 786-0
HCC 2998 = tested on: HCC 2998
MDA-N = tested on: MDA-N
SN12C = tested on: SN12C
CAKI-1 = tested on: CAKI-1
UACC-62 = tested on: UACC-62
MDA-MB-231 = tested on: MDA-MB-231

Cc1ccc(N2C(=O)C3c4[nH]c5ccccc5c4C4CCC(C(C)(C)C)CC4C3C2=O)cc1 (configuration not stated)
GI50 (OVCAR-4): 7.21 µM (inactive)
GI50 (SR): 6.05 µM (inactive)
GI50 (TK-10): 6 µM (inactive)
GI50 (K562): 5.51 µM (inactive)
GI50 (IGROV-1): 11.4 µM (inactive)
GI50 (U-251): 4.49 µM (inactive)
GI50 (HL-60): 7.62 µM (inactive)
GI50 (COLO 205): 8.95 µM (inactive)
GI50 (CCRF-CEM): 5.36 µM (inactive)
GI50 (RPMI-8226): 8.85 µM (inactive)
GI50 (MDA-MB-435): 16.8 µM (inactive)
GI50 (NCI/ADR-RES): 12.8 µM (inactive)
GI50 (OVCAR-5): 14.1 µM (inactive)
GI50 (SK-OV-3): 14.9 µM (inactive)
GI50 (HCT-116): 11.1 µM (inactive)
GI50 (T47D): 15.6 µM (inactive)
GI50 (HOP-62): 5.38 µM (inactive)
GI50 (SW-620): > 26.1 µM (inactive)
GI50 (OVCAR-8): 7.71 µM (inactive)
GI50 (ACHN): 6.64 µM (inactive)
GI50 (OVCAR-3): 3.03 µM (inactive)
GI50 (PC-3): 13 µM (inactive)
GI50 (NCI-H522): 11.2 µM (inactive)
GI50 (KM12): 17.5 µM (inactive)
GI50 (LOX IMVI): 11.6 µM (inactive)
GI50 (BT-549): 19.2 µM (inactive)
GI50 (Hs-578T): 4.1 µM (inactive)
GI50 (SK-MEL-5): 16.8 µM (inactive)
GI50 (UO-31): 14.9 µM (inactive)
GI50 (HOP-92): 15.1 µM (inactive)
GI50 (NCI-H23): 15.1 µM (inactive)
GI50 (UACC-257): 13.3 µM (inactive)
GI50 (NCI-H460): 6.46 µM (inactive)
GI50 (SK-MEL-2): 21.3 µM (inactive)
GI50 (SNB-19): 8.75 µM (inactive)
GI50 (NCI-H226): 17.4 µM (inactive)
GI50 (A549): 10.1 µM (inactive)
GI50 (HCT-15): 34.6 µM
GI50 (MCF7): 12.6 µM (inactive)
GI50 (SF-268): 6.78 µM (inactive)
GI50 (HT-29): 13 µM (inactive)
GI50 (DU-145): 2.48 µM (inactive)
GI50 (A498): 16.2 µM (inactive)
GI50 (SF-295): 8.15 µM (inactive)
GI50 (Malme-3M): 6.9 µM (inactive)
GI50 (EKVX): 13.6 µM (inactive)
GI50 (M14): 13.6 µM (inactive)
GI50 (RXF 393): 10.4 µM (inactive)
GI50 (MOLT-4): 3.17 µM (inactive)
GI50 (SK-MEL-28): 18.3 µM (inactive)
GI50 (786-0): 5.06 µM (inactive)
GI50 (HCC 2998): 14.8 µM (inactive)
GI50 (MDA-N): 16.8 µM (inactive)
GI50 (SN12C): 10.3 µM (inactive)
GI50 (CAKI-1): 10.2 µM (inactive)
GI50 (UACC-62): 16.4 µM (inactive)
GI50 (MDA-MB-231): 3.78 µM (inactive)
